Measured values as given in patent US10689378B2, “Triazolopyridine compounds and uses thereof” (Novartis AG, priority 2016, dated 2020).

Legend:
[1] = biological target: wild type PRC2 (wtPRC2) complex (Homo sapiens, UniProt O75530); assay: EED LC-MS assay (SAH production by PRC2); format: biochemical; details: PRC2 LC-MS assay; read-out: (b) IC50 EED LC-MS Qualified
Outline: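 Pentameric PRC2 (EZH2, SUZ12, EED, Rbap48, AEBP), 12 nM final, preincubated 20 min with compound and SAM, then 1.5 μM biotinylated H3K27me0 peptide, 1 μM SAM, pH 8.0, 120 min at rt. SAH quantified by LC-MS/MS with d4-SAH; control-normalized activity fitted for IC50.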

[2] = system: H3K27 methylation in G401 cell; assay: ELISA (H3K27 methylation) assay in G401 cells; format: cell-based, human; details: Homo sapiens, G-401, H3K27 methylation ELISA, read-out: (c) IC50 ELISA Qualified
Outline: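 G401 cells treated 48 h with 3-fold dilutions (8 or 12 points, top 20 μM). Acid-extracted histones probed by ELISA for H3K27me3 or H3K27me2 with ECL readout, normalized to total H3. Percent inhibition versus DMSO fitted to dose-response curve for IC50.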

EED (1-441)-His protein = biological target: T1, EED (1-441)-His protein (Homo sapiens, UniProt O75530); assay: EED-H3K27Me3 peptide competition binding assay by AlphaScreen; details: EED-H3K27Me3 peptide competition, AlphaScreen; read-out: (a) IC50 EED Alphascreen binding Qualified
T1 construct: 30 nM EED (1-441)-His protein
Outline: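 Serially diluted compound (12 points, 3-fold) incubated 20 min with 30 nM EED(1-441)-His and 15 nM biotin-H3K27Me3(19-33) peptide in 25 mM HEPES pH 8, 0.02% Tween-20, 0.5% BSA. Ni-chelate acceptor/streptavidin donor beads (10 μg/mL each) added, 1 h rt dark; 615 nm emission normalized to controls, dose-response fit for IC50.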

T1 sequence (O75530 whole entry): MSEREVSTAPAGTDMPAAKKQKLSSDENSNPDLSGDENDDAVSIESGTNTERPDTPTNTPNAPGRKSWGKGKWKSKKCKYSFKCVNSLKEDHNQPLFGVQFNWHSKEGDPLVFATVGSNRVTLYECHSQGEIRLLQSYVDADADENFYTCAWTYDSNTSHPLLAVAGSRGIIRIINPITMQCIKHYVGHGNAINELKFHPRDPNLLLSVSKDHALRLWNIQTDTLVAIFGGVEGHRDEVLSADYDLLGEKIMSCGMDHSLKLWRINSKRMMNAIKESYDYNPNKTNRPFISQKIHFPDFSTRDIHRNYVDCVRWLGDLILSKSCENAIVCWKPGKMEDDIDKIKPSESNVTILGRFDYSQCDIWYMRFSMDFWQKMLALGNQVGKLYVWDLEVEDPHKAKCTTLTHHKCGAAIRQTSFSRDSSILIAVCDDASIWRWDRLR
wild type PRC2 (wtPRC2) complex, sequence (O75530 whole entry): as above
wild type PRC2 (wtPRC2) complex, sequence (Q15910 whole entry partner): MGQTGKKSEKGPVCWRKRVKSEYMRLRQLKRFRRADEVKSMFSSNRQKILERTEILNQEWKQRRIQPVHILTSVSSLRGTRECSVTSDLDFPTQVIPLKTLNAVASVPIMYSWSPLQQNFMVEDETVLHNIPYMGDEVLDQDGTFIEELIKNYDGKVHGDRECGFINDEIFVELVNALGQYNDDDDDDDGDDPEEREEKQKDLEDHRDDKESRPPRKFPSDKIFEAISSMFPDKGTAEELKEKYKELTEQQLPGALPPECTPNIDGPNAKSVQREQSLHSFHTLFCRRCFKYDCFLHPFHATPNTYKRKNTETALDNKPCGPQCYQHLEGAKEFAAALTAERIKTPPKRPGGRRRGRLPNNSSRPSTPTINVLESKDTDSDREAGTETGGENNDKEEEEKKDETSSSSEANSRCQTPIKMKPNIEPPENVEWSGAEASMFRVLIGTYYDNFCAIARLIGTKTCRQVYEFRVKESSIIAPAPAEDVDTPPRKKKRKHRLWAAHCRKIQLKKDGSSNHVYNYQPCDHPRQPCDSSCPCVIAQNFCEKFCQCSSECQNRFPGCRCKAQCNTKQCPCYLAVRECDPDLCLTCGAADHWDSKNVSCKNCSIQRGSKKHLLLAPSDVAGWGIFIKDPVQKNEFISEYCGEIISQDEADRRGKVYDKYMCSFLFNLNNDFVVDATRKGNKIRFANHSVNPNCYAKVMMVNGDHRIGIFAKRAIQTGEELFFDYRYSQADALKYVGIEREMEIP
wild type PRC2 (wtPRC2) complex, sequence (Q15022 whole entry partner): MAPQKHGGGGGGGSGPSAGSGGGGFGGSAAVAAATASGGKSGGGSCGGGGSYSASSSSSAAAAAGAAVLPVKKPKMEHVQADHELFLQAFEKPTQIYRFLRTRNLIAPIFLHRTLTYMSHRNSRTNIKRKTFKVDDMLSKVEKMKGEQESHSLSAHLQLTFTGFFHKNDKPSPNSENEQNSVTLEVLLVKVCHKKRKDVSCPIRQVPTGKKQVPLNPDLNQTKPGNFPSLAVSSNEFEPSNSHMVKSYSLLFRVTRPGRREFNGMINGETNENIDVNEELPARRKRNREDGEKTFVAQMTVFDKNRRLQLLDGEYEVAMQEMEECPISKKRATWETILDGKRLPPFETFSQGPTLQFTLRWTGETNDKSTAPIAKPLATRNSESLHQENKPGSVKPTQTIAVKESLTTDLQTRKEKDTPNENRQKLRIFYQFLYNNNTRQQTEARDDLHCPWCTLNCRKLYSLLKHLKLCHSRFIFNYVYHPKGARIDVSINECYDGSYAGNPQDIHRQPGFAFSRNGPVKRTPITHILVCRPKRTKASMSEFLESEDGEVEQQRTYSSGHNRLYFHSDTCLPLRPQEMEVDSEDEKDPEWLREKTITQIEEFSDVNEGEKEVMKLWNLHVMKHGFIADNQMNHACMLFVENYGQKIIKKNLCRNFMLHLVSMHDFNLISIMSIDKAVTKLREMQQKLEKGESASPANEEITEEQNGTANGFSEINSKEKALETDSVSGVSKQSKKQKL
wild type PRC2 (wtPRC2) complex, sequence (Q09028 whole entry partner): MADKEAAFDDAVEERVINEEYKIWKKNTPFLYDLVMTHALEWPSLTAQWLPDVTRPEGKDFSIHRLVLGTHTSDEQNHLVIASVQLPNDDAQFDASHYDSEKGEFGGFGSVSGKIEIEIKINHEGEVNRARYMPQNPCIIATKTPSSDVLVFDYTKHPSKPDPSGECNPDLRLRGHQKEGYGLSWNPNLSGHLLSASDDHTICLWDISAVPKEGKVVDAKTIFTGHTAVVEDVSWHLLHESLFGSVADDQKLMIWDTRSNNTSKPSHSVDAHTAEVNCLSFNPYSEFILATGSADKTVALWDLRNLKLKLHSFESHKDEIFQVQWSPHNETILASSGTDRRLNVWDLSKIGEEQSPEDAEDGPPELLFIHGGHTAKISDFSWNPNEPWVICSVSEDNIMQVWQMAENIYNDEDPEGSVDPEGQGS
wild type PRC2 (wtPRC2) complex, sequence (Q6ZN18 whole entry partner): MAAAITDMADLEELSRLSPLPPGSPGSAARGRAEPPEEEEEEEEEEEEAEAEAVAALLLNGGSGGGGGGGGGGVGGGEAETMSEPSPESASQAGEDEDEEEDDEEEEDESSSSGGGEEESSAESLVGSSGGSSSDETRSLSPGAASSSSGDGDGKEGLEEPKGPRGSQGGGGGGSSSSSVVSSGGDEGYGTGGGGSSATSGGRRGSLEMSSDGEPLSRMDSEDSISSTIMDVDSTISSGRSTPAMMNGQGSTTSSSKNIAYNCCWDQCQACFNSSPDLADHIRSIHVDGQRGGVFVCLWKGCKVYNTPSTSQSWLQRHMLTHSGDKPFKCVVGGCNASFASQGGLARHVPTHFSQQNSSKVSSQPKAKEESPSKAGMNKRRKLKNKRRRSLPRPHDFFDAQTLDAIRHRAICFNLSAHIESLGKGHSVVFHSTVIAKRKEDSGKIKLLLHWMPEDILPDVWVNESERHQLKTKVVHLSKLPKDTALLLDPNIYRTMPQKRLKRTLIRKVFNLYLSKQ

SMILES	IC50 [1] [nM]	IC50 [2] [nM]	IC50 (EED (1-441)-His protein) [nM]
COc1cccc(F)c1CNc1ccc(-c2cncnc2C(F)F)c2nncn12 [Example 290, 8-(4-(difluoromethyl)pyrimidin-5-yl)-N-(2-fluoro-6-methoxybenzyl)-[1,2,4] triazolo[4,3-a]pyridin-5-amine]	33.2	4	30.7
COc1cccc(F)c1CNc1ccc(-c2ccnn2C2CC2)c2nncn12 [Example 292, 8-(1-cyclopropyl-1H-pyrazol-5-yl)-N-(2-fluoro-6-methoxybenzyl)-[1,2,4] triazolo[4,3-a]pyridin-5-amine]	195	11.4	29
COc1cccc(F)c1CNc1ccc(-c2ccc(S(C)(=O)=O)nc2C(F)F)c2nncn12 [Example 293, 8-(2-(difluoromethyl)-6-(methylsulfonyl)pyridin-3-yl)-N-(2-fluoro-6-methoxybenzyl)-[1,2,4] triazolo[4,3-a]pyridin-5-amine]	20.1	10.6	31.4
COc1cccc(F)c1CNc1ccc(-c2cccnc2CF)c2nncn12 [Example 294, N-(2-fluoro-6-methoxybenzyl)-8-(2-(fluoromethyl)pyridin-3-yl)-[1,2,4] triazolo[4,3-a]pyridin-5-amine]	116	9.4	23.9
COc1cc(F)cc(F)c1CNc1ccc(-c2ccc(C(=O)N(C)C)cc2C)c2nncn12 [Example 295, 4-(5-((2,4-difluoro-6-methoxybenzyl)amino)-[1,2,4]triazolo[4,3-a]pyridin-8-yl)-N,N,3-trimethyl benzamide]	321	12.4	30.7
COc1cc(F)cc(F)c1CNc1ccc(-c2ccnn2C)c2nncn12 [Example 296, N-(2,4-difluoro-6-methoxybenzyl)-8-(1-methyl-1H-pyrazol-5-yl)-[1,2,4] triazolo[4,3-a]pyridin-5-amine]	126	5.1	13
COc1cc(F)cc(F)c1CNc1ccc(-c2ccncc2C)c2nncn12 [Example 297, N-(2,4-difluoro-6-methoxybenzyl)-8-(3-methylpyridin-4-yl)-[1,2,4]triazolo[4,3-a] pyridin-5-amine]	618	17.5	42.3
CCc1ncccc1-c1ccc(NCc2c(F)cc(F)cc2OC)n2cnnc12 [Example 298, N-(2,4-difluoro-6-methoxybenzyl)-8-(2-ethylpyridin-3-yl)-[1,2,4]triazolo[4,3-a] pyridin-5-amine]	362	86.9	67.9
COc1cc(F)cc(F)c1CNc1ccc(-c2cncnc2C)c2nncn12 [Example 299, N-(2,4-difluoro-6-methoxybenzyl)-8-(4-methylpyrimidin-5-yl)-[1,2,4] triazolo[4,3-a]pyridin-5-amine]	66.6	11.9	27.6
COc1cccc(F)c1CNc1ccc(-c2cnc(S(C)(=O)=O)cc2C(F)F)c2nncn12 [Example 301, 8-(4-(difluoromethyl)-6-(methylsulfonyl)pyridin-3-yl)-N-(2-fluoro-6-methoxybenzyl)-[1,2,4]triazolo[4,3-a] pyridin-5-amine]	93.4	6.4	23.7
COc1cc(F)cc(F)c1CNc1ccc(-c2cccnc2C(F)F)c2nncn12 [Example 302, N-(2,4-difluoro-6-methoxybenzyl)-8-(2-(difluoromethyl)pyridin-3-yl)-[1,2,4]triazolo[4,3-a]pyridin-5-amine]	39.3	9.8	13.3
COc1cccc(F)c1CNc1ccc(-c2cccnc2CO)c2nncn12 [Example 303, (3-(5-((2-fluoro-6-methoxy benzyl)amino)-[1,2,4]triazolo[4,3-a]pyridin-8-yl)pyridin-2-yl)methanol]	20.4	15.5	27.6
COc1cccc(F)c1CNc1ccc(-c2cnc(OC(F)F)cc2C)c2nncn12 [Example 304, 8-(6-(difluoromethoxy)-4-methylpyridin-3-yl)-N-(2-fluoro-6-methoxybenzyl)-[1,2,4]triazolo[4,3-a]pyridin-5-amine]	48.3	18	26.6
COc1cccc(F)c1CNc1ccc(-c2cc(C)ncc2C)c2nncn12 [Example 305, 8-(2,5-dimethylpyridin-4-yl)-N-(2-fluoro-6-methoxybenzyl)-[1,2,4]triazolo[4,3-a] pyridin-5-amine]	94.6	28.2	52.6
COc1cccc(F)c1CNc1ccc(-c2cc(C(F)F)ncc2C)c2nncn12 [Example 306, 8-(2-(difluoromethyl)-5-methylpyridin-4-yl)-N-(2-fluoro-6-methoxybenzyl)-[1,2,4]triazolo[4,3-a]pyridin-5-amine]	41.8	15.5	30.9
COc1cc(C)c(-c2ccc(NCc3c(F)cccc3OC)n3cnnc23)cn1 [Example 308, N-(2-fluoro-6-methoxybenzyl)-8-(6-methoxy-4-methylpyridin-3-yl)-[1,2,4] triazolo[4,3-a]pyridin-5-amine]	117	17.4	18.6
COc1cccc(F)c1CNc1ccc(-c2ccc(O)nc2C)c2nncn12 [Example 309, 5-(5-((2-fluoro-6-methoxybenzyl)amino)-[1,2,4]triazolo[4,3-a]pyridin-8-yl)-6-methylpyridin-2-ol]	60.6	11.6	15.8
COc1ccc(-c2ccc(NCc3c(F)cccc3OC)n3cnnc23)c(C)n1 [Example 310, N-(2-fluoro-6-methoxybenzyl)-8-(6-methoxy-2-methylpyridin-3-yl)-[1,2,4] triazolo[4,3-a]pyridin-5-amine]	56.1	16.6	13.6
COc1cccc(F)c1CNc1ccc(-c2cn(CCO)nc2C(F)(F)F)c2nncn12 [Example 312, 2-(4-(5-((2-fluoro-6-methoxybenzyl)amino)-[1,2,4]triazolo[4,3-a]pyridin-8-yl)-3-(trifluoromethyl)-1H-pyrazol-1-yl)ethanol]	171	22.5	31.2
COc1cccc(F)c1CNc1ccc(-c2cn(C)nc2C(F)F)c2nncn12 [Example 313, 8-(3-(difluoromethyl)-1-methyl-1H-pyrazol-4-yl)-N-(2-fluoro-6-methoxybenzyl)-[1,2,4]triazolo[4,3-a]pyridin-5-amine]	14.7	4	3.4
COc1cc(F)cc(F)c1CNc1ccc(-c2ccc(C)nc2C(F)F)c2nncn12 [Example 314, N-(2,4-difluoro-6-methoxybenzyl)-8-(2-(difluoromethyl)-6-methylpyridin-3-yl)-[1,2,4]triazolo [4,3-a]pyridin-5-amine]	110	18.6	22.3
COc1cccc(F)c1CNc1ccc(-c2ccc(C)nc2C(F)F)c2nncn12 [Example 315, 8-(2-(difluoromethyl)-6-methylpyridin-3-yl)-N-(2-fluoro-6-methoxybenzyl)-[1,2,4]triazolo[4,3-a]pyridin-5-amine]	21.5	7.8	7.7
COc1cccc(F)c1CNc1ccc(-c2cnc(C)cc2C(F)F)c2nncn12 [Example 316, 8-(4-(difluoromethyl)-6-methylpyridin-3-yl)-N-(2-fluoro-6-methoxybenzyl)-[1,2,4]triazolo[4,3-a]pyridin-5-amine]	215	17.3	15.7
COc1cc(F)cc(F)c1CNc1ccc(-c2cnc(C)cc2C(F)F)c2nncn12 [Example 317, N-(2,4-difluoro-6-methoxybenzyl)-8-(4-(difluoromethyl)-6-methylpyridin-3-yl)-[1,2,4]triazolo [4,3-a]pyridin-5-amine]	218	53.2	35.6
COc1ccc(-c2ccc(NCc3c(F)cc(F)cc3OC)n3cnnc23)c(C)n1 [Example 319, N-(2,4-difluoro-6-methoxybenzyl)-8-(6-methoxy-2-methylpyridin-3-yl)-[1,2,4] triazolo[4,3-a]pyridin-5-amine]	130	40.7	28.5
COc1ncc(-c2ccc(NCc3c(F)cccc3OC)n3cnnc23)c(C)n1 [Example 322, N-(2-fluoro-6-methoxybenzyl)-8-(2-methoxy-4-methylpyrimidin-5-yl)-[1,2,4]triazolo[4,3-a]pyridin-5-amine]	32.3	7.1	9.1
COc1ncc(-c2ccc(NCc3c(F)cc(F)cc3OC)n3cnnc23)c(C)n1 [Example 323, N-(2,4-difluoro-6-methoxybenzyl)-8-(2-methoxy-4-methylpyrimidin-5-yl)-[1,2,4]triazolo[4,3-a]pyridin-5-amine]	31.2	14.3	24.6
